System: MV-4-11 cells
Experiment: Gene expression microarray analysis (Affymetrix PrimeView) and GSEA
Format: cell-based, human
Set-up: RFU PODN (11730768_x_at) / Fold change /veh PODN (11730768_x_at) / RFU LINC00158 (11744669_a_at) / Fold change /veh LINC00158 (11744669_a_at) / RFU DUSP10 (11751237_a_at) / Fold change /veh DUSP10 (11751237_a_at) / RFU ID3 (11757404_x_at) / Fold change /veh ID3 (11757404_x_at) / RFU PLEKHG5 (11737974_s_at) / Fold change /veh PLEKHG5 (11737974_s_at) / RFU LRRC4B (11730491_at) / Fold change /veh LRRC4B (11730491_at) / RFU GIMAP4 (11747438_a_at) / Fold change /veh GIMAP4 (11747438_a_at) / RFU KRT8 (11758183_x_at) / Fold change /veh KRT8 (11758183_x_at) / RFU CNN1 (11734310_a_at) / Fold change /veh CNN1 (11734310_a_at) / RFU VPS37D (11726825_at) / Fold change /veh VPS37D (11726825_at) / RFU C10orf10 (11716522_x_at) / Fold change /veh C10orf10 (11716522_x_at) / RFU KIR2DL2 /// KIR2DL4 /// KIR2DL5A /// KIR2DL5B /// KIR2DS1 /// KIR2DS2 /// KIR2DS3 /// KIR2DS4 /// KIR3DL3 /// KIR3DL3 /// KIR3DS1 (11738374_at) / Fold change /veh KIR2DL2 /// KIR2DL4 /// KIR2DL5A /// KIR2DL5B /// KIR2DS1 /// KIR2DS2 /// KIR2DS3 /// KIR2DS4 /// KIR3DL3 /// KIR3DL3 /// KIR3DS1 (11738374_at) / RFU C1QL1 (11718748_at) / Fold change /veh C1QL1 (11718748_at) / RFU TMPRSS4 (11747572_a_at) / Fold change /veh TMPRSS4 (11747572_a_at) / RFU HAMP (11756126_x_at) / Fold change /veh HAMP (11756126_x_at) / RFU RNFT2 (11725882_a_at) / Fold change /veh RNFT2 (11725882_a_at) / RFU NR4A2 (11747474_a_at) / Fold change /veh NR4A2 (11747474_a_at) / RFU ABCC12 (11746883_a_at) / Fold change /veh ABCC12 (11746883_a_at) / RFU TMEM136 (11760407_x_at) / Fold change /veh TMEM136 (11760407_x_at) / RFU CLDN22 /// WWC2 (11732394_at) / Fold change /veh CLDN22 /// WWC2 (11732394_at) / RFU HLA-DPB1 (11760878_x_at) / Fold change /veh HLA-DPB1 (11760878_x_at) / RFU SPINT1 (11716480_a_at) / Fold change /veh SPINT1 (11716480_a_at) / RFU GAP43 (11754022_s_at) / Fold change /veh GAP43 (11754022_s_at) / RFU A4GNT (11735810_at) / Fold change /veh A4GNT (11735810_at) / RFU PRB3 (11715151_x_at) / Fold change /veh PRB3 (11715151_x_at) / RFU TUBB4B (11761932_at) / Fold change /veh TUBB4B (11761932_at) / RFU CAPN14 (11732068_a_at) / Fold change /veh CAPN14 (11732068_a_at) / RFU TMCC2 (11721928_a_at) / Fold change /veh TMCC2 (11721928_a_at) / RFU IRGQ (11745062_a_at) / Fold change /veh IRGQ (11745062_a_at) / RFU FAM174B (11720279_a_at) / Fold change /veh FAM174B (11720279_a_at) / RFU TMPRSS4 (11748680_a_at) / Fold change /veh TMPRSS4 (11748680_a_at) / RFU FAM212B (11763350_a_at) / Fold change /veh FAM212B (11763350_a_at) / RFU PLEKHG5 (11743358_a_at) / Fold change /veh PLEKHG5 (11743358_a_at) / RFU ZSCAN30 (11745921_a_at) / Fold change /veh ZSCAN30 (11745921_a_at) / RFU CMKLR1 (11741424_a_at) / Fold change /veh CMKLR1 (11741424_a_at) / RFU LOC101060620 /// MAPK8IP1 (11723275_at) / Fold change /veh LOC101060620 /// MAPK8IP1 (11723275_at) / RFU SPTSSB (11747773_x_at) / Fold change /veh SPTSSB (11747773_x_at) / RFU PRSS12 (11739890_at) / Fold change /veh PRSS12 (11739890_at) / RFU BIN1 (11741810_x_at) / Fold change /veh BIN1 (11741810_x_at) / RFU WNT11 (11732464_a_at) / Fold change /veh WNT11 (11732464_a_at) / RFU C10orf10 (11716521_a_at) / Fold change /veh C10orf10 (11716521_a_at) / RFU C5orf56 (11738089_at) / Fold change /veh C5orf56 (11738089_at) / RFU CYB561 (11721691_x_at) / Fold change /veh CYB561 (11721691_x_at) / RFU ANKRD19P (11752326_a_at) / Fold change /veh ANKRD19P (11752326_a_at) / RFU OR2T12 /// OR2T33 /// OR2T8 (11738714_s_at) / Fold change /veh OR2T12 /// OR2T33 /// OR2T8 (11738714_s_at) / RFU VCAN (11748164_a_at) / Fold change /veh VCAN (11748164_a_at) / RFU JSRP1 (11732532_at) / Fold change /veh JSRP1 (11732532_at) / RFU KRTAP10-11 (11738290_x_at) / Fold change /veh KRTAP10-11 (11738290_x_at) / RFU MYO3A (11730013_a_at) / Fold change /veh MYO3A (11730013_a_at) / RFU EBF3 (11725865_a_at) / Fold change /veh EBF3 (11725865_a_at) / RFU CAMK2N1 (11719241_x_at) / Fold change /veh CAMK2N1 (11719241_x_at) / RFU C5orf56 (11738088_a_at) / Fold change /veh C5orf56 (11738088_a_at) / RFU OLFML3 (11715873_a_at) / Fold change /veh OLFML3 (11715873_a_at) / RFU LOC100653217 /// NTM (11731650_a_at) / Fold change /veh LOC100653217 /// NTM (11731650_a_at) / RFU MAPK11 (11762145_a_at) / Fold change /veh MAPK11 (11762145_a_at) / RFU FIZ1 (11724087_x_at) / Fold change /veh FIZ1 (11724087_x_at) / RFU OASL (11726364_x_at) / Fold change /veh OASL (11726364_x_at) / RFU SOX15 (11748057_x_at) / Fold change /veh SOX15 (11748057_x_at) / RFU CD79A (11719716_a_at) / Fold change /veh CD79A (11719716_a_at) / RFU HIST1H1D (11736915_at) / Fold change /veh HIST1H1D (11736915_at) / RFU CASKIN2 (11723855_a_at) / Fold change /veh CASKIN2 (11723855_a_at) / RFU LOC730098 (11760151_x_at) / Fold change /veh LOC730098 (11760151_x_at) / RFU OR4N2 (11742367_at) / Fold change /veh OR4N2 (11742367_at) / RFU PRRT2 (11749266_a_at) / Fold change /veh PRRT2 (11749266_a_at) / RFU SNX32 (11753110_a_at) / Fold change /veh SNX32 (11753110_a_at) / RFU CDHR5 (11726645_a_at) / Fold change /veh CDHR5 (11726645_a_at) / RFU RCAN1 (11760418_a_at) / Fold change /veh RCAN1 (11760418_a_at) / RFU FAM167A (11723789_a_at) / Fold change /veh FAM167A (11723789_a_at) / RFU FAM26E (11764081_at) / Fold change /veh FAM26E (11764081_at) / RFU ISYNA1 (11749810_s_at) / Fold change /veh ISYNA1 (11749810_s_at) / RFU ACY1 (11761880_at) / Fold change /veh ACY1 (11761880_at) / RFU 11764098_at / Fold change /veh 11764098_at / RFU SAMD14 (11745864_x_at) / Fold change /veh SAMD14 (11745864_x_at) / RFU NPB (11741838_a_at) / Fold change /veh NPB (11741838_a_at) / RFU TMPRSS6 (11731388_a_at) / Fold change /veh TMPRSS6 (11731388_a_at) / RFU KRTAP10-2 (11738614_at) / Fold change /veh KRTAP10-2 (11738614_at) / RFU ARHGAP8 /// PRR5-ARHGAP8 (11727945_x_at) / Fold change /veh ARHGAP8 /// PRR5-ARHGAP8 (11727945_x_at) / RFU KRTAP5-7 /// NADSYN1 (11734609_at) / Fold change /veh KRTAP5-7 /// NADSYN1 (11734609_at) / RFU RASL12 (11751679_a_at) / Fold change /veh RASL12 (11751679_a_at) / RFU CDKN2B (11736163_a_at) / Fold change /veh CDKN2B (11736163_a_at) / RFU PRF1 (11729649_at) / Fold change /veh PRF1 (11729649_at) / RFU, ZNF638 /// ZNF638-IT1 / Fold change vs veh, ZNF638 /// ZNF638-IT1 / RFU, PANK3 / Fold change vs veh, PANK3 / RFU, SH3YL1 / Fold change vs veh, SH3YL1 / RFU, ZEB2 / Fold change vs veh, ZEB2 / RFU, NRIP1 / Fold change vs veh, NRIP1 / RFU, PTTG1IP / Fold change vs veh, PTTG1IP / RFU, CAPN2 / Fold change vs veh, CAPN2 / RFU, MED14 / Fold change vs veh, MED14 / RFU, SNORA58 / Fold change vs veh, SNORA58 / RFU, C1orf63 / Fold change vs veh, C1orf63 / RFU, LRRFIP1 / Fold change vs veh, LRRFIP1 / RFU, NDUFAF7 / Fold change vs veh, NDUFAF7 / RFU, SLC12A2 / Fold change vs veh, SLC12A2 / RFU, IBTK / Fold change vs veh, IBTK / RFU, ESF1 / Fold change vs veh, ESF1 / Fold change vs veh, TMEM50B / RFU, TAOK1 / Fold change vs veh, TAOK1 / RFU, ACBD3 / Fold change vs veh, ACBD3 / RFU, TMA16 / Fold change vs veh, TMA16 / RFU, RWDD3 / Fold change vs veh, RWDD3 / RFU, BCAT1 / Fold change vs veh, BCAT1 / RFU, EDEM3 / Fold change vs veh, EDEM3 / RFU, TMEM33 / Fold change vs veh, TMEM33 / RFU, WDR75 / Fold change vs veh, WDR75 / RFU, AHCTF1 / Fold change vs veh, AHCTF1 / RFU, TFRC / Fold change vs veh, TFRC / RFU, ZDHHC17 / Fold change vs veh, ZDHHC17 / RFU, NOM1 / Fold change vs veh, NOM1 / RFU, ARL8B / Fold change vs veh, ARL8B / RFU, ZBTB11 / Fold change vs veh, ZBTB11 / RFU, TAMM41 / Fold change vs veh, TAMM41 / RFU, KIAA1704 /// LOC100996395 / Fold change vs veh, KIAA1704 /// LOC100996395 / RFU, ING1 / Fold change vs veh, ING1 / RFU, TRMT61B / Fold change vs veh, TRMT61B / RFU, FUBP3 / Fold change vs veh, FUBP3 / RFU, TP53 / Fold change vs veh, TP53 / RFU, TNKS2 / Fold change vs veh, TNKS2 / RFU, ZFP14 / Fold change vs veh, ZFP14 / RFU, ACTR2 / Fold change vs veh, ACTR2 / RFU, PPP3R1 / Fold change vs veh, PPP3R1 / RFU, PIK3R1 / Fold change vs veh, PIK3R1 / RFU, HNRNPA1 / Fold change vs veh, HNRNPA1 / RFU, RNF170 / Fold change vs veh, RNF170 / RFU, ZNF28 / Fold change vs veh, ZNF28 / RFU, RNGTT / Fold change vs veh, RNGTT / RFU, OGT / Fold change vs veh, OGT / RFU, BRD1 / Fold change vs veh, BRD1 / RFU, MARS / Fold change vs veh, MARS / RFU, ZNF655 / Fold change vs veh, ZNF655 / RFU, FAHD1 / Fold change vs veh, FAHD1 / RFU, BDP1 / Fold change vs veh, BDP1 / RFU, LRRCC1 / Fold change vs veh, LRRCC1 / RFU, ARID1A / Fold change vs veh, ARID1A / RFU, ZNF146 / Fold change vs veh, ZNF146 / RFU, ZNF330 / Fold change vs veh, ZNF330 / RFU, GPN3 / Fold change vs veh, GPN3 / RFU, C9orf123 / Fold change vs veh, C9orf123 / RFU, N4BP2L2 / Fold change vs veh, N4BP2L2 / RFU, ARFIP1 / Fold change vs veh, ARFIP1 / RFU, FAM179B / Fold change vs veh, FAM179B / RFU, BCL10 / Fold change vs veh, BCL10 / RFU, UHRF1BP1L / Fold change vs veh, UHRF1BP1L / RFU, BET1 / Fold change vs veh, BET1 / RFU, CNOT2 / Fold change vs veh, CNOT2 / RFU, ZNF268 / Fold change vs veh, ZNF268 / Fold change vs veh, ZNF507 / RFU, DGCR2 / Fold change vs veh, DGCR2 / RFU, WDSUB1 / Fold change vs veh, WDSUB1 / Fold change vs veh, HSP90B1 /// MIR3652 / RFU, ADSS / Fold change vs veh, ADSS / RFU, GK / Fold change vs veh, GK / RFU, ZNF148 / Fold change vs veh, ZNF148 / RFU, TAF9 / Fold change vs veh, TAF9 / RFU, SLC1A5 / Fold change vs veh, SLC1A5 / RFU, SLMO2 / Fold change vs veh, SLMO2 / RFU, ABCC4 / Fold change vs veh, ABCC4 / RFU, LOC101060439 /// RAP1B / Fold change vs veh, LOC101060439 /// RAP1B / RFU, RFX7 / Fold change vs veh, RFX7 / RFU, GTPBP10 / Fold change vs veh, GTPBP10 / RFU, CNEP1R1 / Fold change vs veh, CNEP1R1 / RFU, BIVM-ERCC5 /// ERCC5 / Fold change vs veh, BIVM-ERCC5 /// ERCC5 / RFU, ILF3 / Fold change vs veh, ILF3 / RFU 11762660_at / Fold change /veh 11762660_at / RFU VCAN (11757783_s_at) / Fold change /veh VCAN (11757783_s_at) / RFU DDX43 (11728927_at) / Fold change /veh DDX43 (11728927_at) / RFU KRT8 (11758188_x_at) / Fold change /veh KRT8 (11758188_x_at) / RFU NKD1 (11759106_at) / Fold change /veh NKD1 (11759106_at) / RFU SRD5A1 (11742802_a_at) / Fold change /veh SRD5A1 (11742802_a_at) / RFU TPSAB1 /// TPSB2 (11721975_s_at) / Fold change /veh TPSAB1 /// TPSB2 (11721975_s_at) / RFU GSTM3 (11746129_a_at) / Fold change /veh GSTM3 (11746129_a_at) / RFU IL23R (11737362_x_at) / Fold change /veh IL23R (11737362_x_at) / RFU TMEM51 (11727254_a_at) / Fold change /veh TMEM51 (11727254_a_at) / RFU PIWIL2 (11732686_x_at) / Fold change /veh PIWIL2 (11732686_x_at) / RFU ORM1 (11744905_x_at) / Fold change /veh ORM1 (11744905_x_at) / RFU CCDC152 (11743942_at) / Fold change /veh CCDC152 (11743942_at) / RFU ECM1 (11717891_a_at) / Fold change /veh ECM1 (11717891_a_at) / RFU IL23R (11748794_a_at) / Fold change /veh IL23R (11748794_a_at) / RFU TNFAIP8L3 (11732012_x_at) / Fold change /veh TNFAIP8L3 (11732012_x_at) / RFU MBOAT4 (11741988_at) / Fold change /veh MBOAT4 (11741988_at) / RFU 11764193_at / Fold change /veh 11764193_at / RFU TMEM53 (11763286_at) / Fold change /veh TMEM53 (11763286_at) / RFU MAGEB2 (11727129_at) / Fold change /veh MAGEB2 (11727129_at) / RFU TMEM200A (11744735_a_at) / Fold change /veh TMEM200A (11744735_a_at) / RFU CCDC152 (11751479_a_at) / Fold change /veh CCDC152 (11751479_a_at) / RFU FAM211A (11726209_a_at) / Fold change /veh FAM211A (11726209_a_at) / RFU RGS16 (11746705_a_at) / Fold change /veh RGS16 (11746705_a_at) / RFU VCAN (11755009_s_at) / Fold change /veh VCAN (11755009_s_at) / RFU RHOB (11743442_s_at) / Fold change /veh RHOB (11743442_s_at) / RFU RGS16 (11720943_a_at) / Fold change /veh RGS16 (11720943_a_at) / RFU RGS16 (11720944_at) / Fold change /veh RGS16 (11720944_at) / RFU, VPS4B / Fold change vs veh, VPS4B / RFU, CREB1 / Fold change vs veh, CREB1 / RFU, DNAJC13 / Fold change vs veh, DNAJC13 / RFU, GNAQ / Fold change vs veh, GNAQ / RFU, CDK5R1 / Fold change vs veh, CDK5R1 / RFU, ZRANB3 / Fold change vs veh, ZRANB3 / RFU, CUL4A / Fold change vs veh, CUL4A / RFU, CCNY / Fold change vs veh, CCNY / RFU, UFL1 / Fold change vs veh, UFL1 / RFU, COG3 / Fold change vs veh, COG3 / RFU, DIAPH2 / Fold change vs veh, DIAPH2 / RFU, SKA2 / Fold change vs veh, SKA2 / RFU, AFF3 / Fold change vs veh, AFF3 / RFU, LMF1 / Fold change vs veh, LMF1 / RFU, IPO11 / Fold change vs veh, IPO11 / RFU, DFFB / Fold change vs veh, DFFB / RFU, FOXP1 / Fold change vs veh, FOXP1 / RFU, CARD8 / Fold change vs veh, CARD8 / RFU, STRN3 / Fold change vs veh, STRN3 / RFU, ADK / Fold change vs veh, ADK / RFU, RASSF2 / Fold change vs veh, RASSF2 / RFU, WIPF1 / Fold change vs veh, WIPF1 / RFU, LARP1B / Fold change vs veh, LARP1B / RFU, RASA1 / Fold change vs veh, RASA1 / RFU, RB1 / Fold change vs veh, RB1 / RFU, PPFIA1 / Fold change vs veh, PPFIA1 / RFU, MAT2A / Fold change vs veh, MAT2A / RFU, CCT5 / Fold change vs veh, CCT5 / RFU, WDR92 / Fold change vs veh, WDR92 / RFU, CUX1 / Fold change vs veh, CUX1 / RFU, TTC7A / Fold change vs veh, TTC7A / RFU, TMEM135 / Fold change vs veh, TMEM135 / RFU, DEPTOR / Fold change vs veh, DEPTOR / RFU, CPM / Fold change vs veh, CPM / RFU, DNAJB6 / Fold change vs veh, DNAJB6 / RFU, CACNA2D3 / Fold change vs veh, CACNA2D3 / RFU, DTX4 / Fold change vs veh, DTX4 / RFU, TFCP2 / Fold change vs veh, TFCP2 / RFU, GMCL1 /// GMCL1P1 / Fold change vs veh, GMCL1 /// GMCL1P1 / RFU, AEBP2 / Fold change vs veh, AEBP2 / RFU, SNHG1 /// SNORD22 /// SNORD25 /// SNORD26 /// SNORD27 /// SNORD28 /// SNORD29 /// SNORD31 / Fold change vs veh, SNHG1 /// SNORD22 /// SNORD25 /// SNORD26 /// SNORD27 /// SNORD28 /// SNORD29 /// SNORD31 / Fold change (Aza/veh), C12orf56 (ProbeSet 11735607_a_at) / Fold change (ACY-1035/veh), C12orf56 (ProbeSet 11735607_a_at) / Fold change (Aza/veh), FGFR1OP (ProbeSet 11751329_s_at) / Fold change (ACY-1035/veh), FGFR1OP (ProbeSet 11751329_s_at) / Fold change (Aza/veh), VPS36 (ProbeSet 11739960_a_at) / Fold change (ACY-1035/veh), VPS36 (ProbeSet 11739960_a_at) / RFU SYPL1 (11715823_x_at) / Fold change /veh SYPL1 (11715823_x_at) / RFU IGFBP7 (11715501_s_at) / Fold change /veh IGFBP7 (11715501_s_at) / RFU REEP3 (11722064_at) / Fold change /veh REEP3 (11722064_at) / RFU IGLL1 (11728026_x_at) / Fold change /veh IGLL1 (11728026_x_at): dose or concentration left out as unconfirmed
Settings: MV-4-11 cells, 48 hours

Nc1ccc(-c2cccs2)cc1NC(=O)c1ccc2c(c1)cc(C1CC1)n2CCN1CCOCC1 [ACY-1035]
Fold change /veh CCDC152 (11751479_a_at): 1.05
